Data from US20080221161A1, “HETEROCYCLIC MODULATORS OF TGR5 FOR TREATMENT OF DISEASE” (KALYPSYS, INC., priority 2007, published 2008).
Structures can show the parent of a compound that is named as a salt.

Biological target: T1, human TGR5 (Homo sapiens, UniProt Q8TDU6)
T1 construct: expressed in transfected cells; host or cells: HEK-293 cells, stably transfected (pcDNA 3.1, Fugene6, geneticin selection)
T1 sequence (Q8TDU6 1-330): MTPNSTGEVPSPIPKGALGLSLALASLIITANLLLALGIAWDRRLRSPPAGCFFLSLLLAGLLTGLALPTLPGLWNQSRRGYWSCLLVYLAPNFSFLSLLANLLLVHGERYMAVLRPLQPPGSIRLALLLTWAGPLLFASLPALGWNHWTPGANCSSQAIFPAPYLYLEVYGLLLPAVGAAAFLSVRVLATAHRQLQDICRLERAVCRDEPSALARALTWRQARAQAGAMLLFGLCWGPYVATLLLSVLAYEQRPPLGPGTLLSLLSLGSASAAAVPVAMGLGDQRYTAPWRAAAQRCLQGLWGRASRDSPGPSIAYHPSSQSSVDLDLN
Test: cAMP production assay in HEK293-TGR5 cells
Type: cell-based
Details: HEK293 cells stably expressing human TGR5; 30 minutes stimulation; LANCE cAMP TR-FRET; read-out: cAMP Production in 293-TGR5 Cells EC50

SMILES | EC50 [µM]
O=[N+]([O-])c1ccc2cc(CNCCc3ccc(Br)cc3)c(-c3ccsc3)nc2c1 [Example 127, 2-(4-bromophenyl)-N-((7-nitro-2-(thiophen-3-yl)quinolin-3-yl)methyl)ethanamine] | > 10
Nc1ccc2cc(CNCCc3ccc(Br)cc3)c(-c3ccsc3)nc2c1 [Example 128, 3-((4-Bromophenethylamino)methyl)-2-(thiophen-3-yl)quinolin-7-amine] | > 10
COc1ccc2c(C)c(CNCCc3ccc(Br)cc3)c(-c3ccsc3)nc2c1 [Example 129, 2-(4-Bromophenyl)-N-((7-methoxy-4-methyl-2-(thiophen-3-yl)quinolin-3-yl)methyl)ethanamine] | > 10
COc1ccc2cc(CN[C@H](C)c3ccc(Br)cc3)c(-c3ccsc3)nc2c1 [Example 130, (R)-1-(4-Bromophenyl)-N-((7-methoxy-2-(thiophen-3-yl)quinolin-3-yl)methyl)ethanamine] | < 10
COc1cc2cc(CNCCc3ccc(Br)cc3)c(-c3ccsc3)nc2cc1C [Example 131, 2-(4-Bromophenyl)-N-((6-methoxy-7-methyl-2-(thiophen-3-yl)quinolin-3-yl)methyl)ethanamine] | < 10
Cc1cc2nc(-c3ccsc3)c(CNCCc3ccc(Br)cc3)cc2cc1O [Example 132, 3-((4-Bromophenethylamino)methyl)-7-methyl-2-(thiophen-3-yl)quinolin-6-ol] | > 10
COc1ccc2cc(CN[C@@H](C)c3ccc(Br)cc3)c(-c3ccsc3)nc2c1 [Example 133, (S)-1-(4-Bromophenyl)-N-((7-methoxy-2-(thiophen-3-yl)quinolin-3-yl)methyl)ethanamine] | < 10
C[C@@H](NCc1cc2ccc(O)cc2nc1-c1ccsc1)c1ccc(Br)cc1 [Example 134, (R)-3-((1-(4-Bromophenyl)ethylamino)methyl)-2-(thiophen-3-yl)quinolin-7-ol] | < 10
C[C@H](NCc1cc2ccc(O)cc2nc1-c1ccsc1)c1ccc(Br)cc1 [Example 135, (S)-3-((1-(4-Bromophenyl)ethylamino)methyl)-2-(thiophen-3-yl)quinolin-7-ol] | < 10
N#Cc1ccc2cc(CNCCc3ccc(Br)cc3)c(-c3ccsc3)nc2c1 [Example 136, 3-((4-Bromophenethylamino)methyl)-2-(thiophen-3-yl)quinoline-7-carbonitrile] | < 10
CCOC(=O)c1ccc2cc(CNCCc3ccc(Br)cc3)c(-c3ccsc3)nc2c1 [Example 137, Ethyl 3-((4-bromophenethylamino)methyl)-2-(thiophen-3-yl)quinoline-7-carboxylate] | > 10
NC(=O)c1ccc2cc(CNCCc3ccc(Br)cc3)c(-c3ccsc3)nc2c1 [Example 139, 3-((4-Bromophenethylamino)methyl)-2-(thiophen-3-yl)quinoline-7-carboxamide] | < 10
CNC(=O)c1ccc2cc(CNCCc3ccc(Br)cc3)c(-c3ccsc3)nc2c1 [Example 140, 3-((4-Bromophenethylamino)methyl)-N-methyl-2-(thiophen-3-yl)quinoline-7-carboxamide] | < 10
OCc1ccc2cc(CNCCc3ccc(Br)cc3)c(-c3ccsc3)nc2c1 [Example 141, (3-((4-Bromophenethylamino)methyl)-2-(thiophen-3-yl)quinolin-7-yl)methanol] | < 10
CC(=O)Nc1ccc2cc(CNCCc3ccc(Br)cc3)c(-c3ccsc3)nc2c1 [Example 142, N-(3-((4-bromophenethylamino)methyl)-2-(thiophen-3-yl)quinolin-7-yl)acetamide] | > 10
COc1ccc2cc(CNC(C)Cc3ccc(Br)cc3)c(-c3ccsc3)nc2c1 (stereo not shown) [Example 145, 1-(4-Bromophenyl)-N-((7-methoxy-2-(thiophen-3-yl)quinolin-3-yl)methyl)propan-2-amine] | > 10
COc1cc2nc(-c3ccsc3)c(CNCCc3ccc(Br)cc3)cc2cc1F [Example 146, 2-(4-Bromophenyl)-N-((6-fluoro-7-methoxy-2-(thiophen-3-yl)quinolin-3-yl)methyl)-ethanamine] | < 10
Oc1cc2nc(-c3ccsc3)c(CNCCc3ccc(Br)cc3)cc2cc1F [Example 147, 3-((4-Bromophenethylamino)methyl)-6-fluoro-2-(thiophen-3-yl)quinolin-7-ol] | > 10
COc1ccc2cc(CNCCc3ccc(Br)cc3)c(OC)nc2c1 [Example 148, 2-(4-Bromophenyl)-N-((2,7-dimethoxyquinolin-3-yl)methyl)ethanamine] | > 10
COc1ccc2cc(CNCCc3ccc(Br)cc3)c(O)nc2c1 [Example 149, 3-((4-Bromophenethylamino)methyl)-7-methoxyquinolin-2(1H)-one hydrochloride] | > 10

System: mice fed high fat diet (HFD)
Test: not given
Details: mice fed HFD containing 0.5% cholic acid vs HFD alone; cited from earlier work

SMILES | Food intake | Weight gain
C[C@H](CCC(=O)O)[C@H]1CC[C@H]2[C@@H]3[C@H](O)C[C@@H]4C[C@H](O)CC[C@]4(C)[C@H]3C[C@H](O)[C@]12C [cholic acid] | no difference between the two groups | gained less weight than control mice on HFD alone
